Literature values, collected in patent US20200085832A1, “DEUTERATED ANALOGS OF AN ORGANIC COMPOUND” (Agios Pharmaceuticals, Inc., priority 2019, published 2020).

Tests used:
mutant IDH2 (mIDH2) = conditions: D. Rohle et al. Science 340:626-630 (2013)
mIDH1-driven gliomas = conditions: some model systems
mutant IDH1 (mIDH1) = conditions: D. Rohle et al. Science 340:626-630 (2013)
mutant IDH2 = conditions: biochemical and cellular assays
mutant IDH1 = conditions: biochemical and cellular assays

**Q.** With `Cc1ccccc1C(C(=O)NC1CCCCC1)N(C(=O)Cn1ccnc1C)c1cccc(F)c1` (centres unmarked) [AGI-5198] as the compound, how does the “inhibition of mutant IDH2” value (mutant IDH2 (mIDH2)) read?
**A.** The value was “not mutant IDH2 (mIDH2)”.

**Q.** And the “growth of mIDH1-driven gliomas” value (mIDH1-driven gliomas)?
**A.** Its value is “repress growth of mIDH1-driven gliomas”.

**Q.** And the “inhibition of mutant IDH1” value (mutant IDH1 (mIDH1))?
**A.** The value was “inhibit mutant IDH1 (mIDH1)”.

**Q.** For `C[C@@H](Nc1nc(N[C@H](C)C(F)(F)F)nc(-c2cccc(Cl)n2)n1)C(F)(F)F` [Compound X, 6-(6-chloropyridin-2-yl)-N^2,N^4-bis((R)-1,1,1-trifluoropropan-2-yl)-1,3,5-triazine-2,4-diamine], which “inhibitor of mutant IDH2 protein” value (mutant IDH2) is on record?
**A.** Its value is “inhibitor of mutant IDH1 and IDH2 proteins”.

**Q.** And the “inhibitor of mutant IDH1 protein” value (mutant IDH1)?
**A.** The value was “inhibitor of mutant IDH1 and IDH2 proteins”.
